Results as given in US6903128B2, “Non-peptidyl inhibitors of VLA-4 dependent cell binding useful in treating inflammatory, autoimmune, and respiratory diseases” (Pfizer Inc, priority 1999, dated 2005).

| melting point [°C] | SMILES |
| --- | --- |
| 102 to 104 | COc1cc(CC(=O)NC(CC(C)C)c2cc(CC(NC(=O)c3c(Cl)cccc3Cl)C(=O)O)on2)ccc1NC(=O)Nc1ccccc1C (centres unmarked) [Example 25, 2-(2,6-Dichloro-benzoylamino)-3-[3-(1-{2-[3-methoxy-4-(3-o-tolyl-ureido)-phenyl]-acetylamino}-3-methyl-butyl)-isoxazol-5-yl]-propionic acid] |
| 123 to 125 | COc1cc(CC(=O)NC(CC(C)C)c2cc(CC(NC(C)=O)C(=O)O)on2)ccc1NC(=O)Nc1ccccc1C (centres unmarked) [Example 27, 2-acetylamino-3-[3-(1-{2-[3-methoxy-4-(3-o-tolyl-ureido)-phenyl]-acetylamino}-3-methyl-butyl)-isoxazol-5-yl]-propionic acid] |
